In PMC11073913 (Archiv der Pharmazie, 2024):
Several values for one entry are separate records, joined by “and”; a condition that tells them apart may be missing. Equal entries are not always repeated. Where two headings read alike, the source gives them in different places.

Tests used:
[1] = system: LPS-induced IL-6 production in RAW 264.7 cells; conditions: LPS-activated RAW 264.7; for IL-6 level: cells treated with 25 μM compound
[2] = system: LPS-induced TNF-α production in RAW 264.7 cells; conditions: for TNF-α level: cells treated with 25 μM compound
ovine COX-1 = target: T1, ovine COX-1 (Ovis aries, UniProt P05979); assay: In vitro COX-1 inhibitory assay; assay type: biochemical
T1 sequence (P05979 25-600): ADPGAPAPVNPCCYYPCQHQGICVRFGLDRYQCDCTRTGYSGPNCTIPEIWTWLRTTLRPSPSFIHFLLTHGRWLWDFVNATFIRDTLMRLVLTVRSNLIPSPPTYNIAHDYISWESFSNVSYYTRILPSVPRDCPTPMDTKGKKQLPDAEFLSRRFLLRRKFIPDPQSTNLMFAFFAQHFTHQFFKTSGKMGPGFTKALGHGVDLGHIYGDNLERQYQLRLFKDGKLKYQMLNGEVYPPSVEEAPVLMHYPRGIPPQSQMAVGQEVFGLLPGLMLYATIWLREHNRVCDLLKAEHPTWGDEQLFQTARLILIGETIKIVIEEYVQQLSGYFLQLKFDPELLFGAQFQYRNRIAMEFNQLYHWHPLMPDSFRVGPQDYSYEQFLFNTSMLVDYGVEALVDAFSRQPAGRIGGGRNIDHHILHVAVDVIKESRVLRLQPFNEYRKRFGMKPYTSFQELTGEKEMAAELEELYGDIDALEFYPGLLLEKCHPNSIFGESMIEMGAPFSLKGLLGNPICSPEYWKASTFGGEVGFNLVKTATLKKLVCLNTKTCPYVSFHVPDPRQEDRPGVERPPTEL

soybean 15-LOX = target: T2, soybean 15-LOX (Glycine max, UniProt P08170); assay: In vitro 15-LOX inhibitory assay; assay type: biochemical
T2 sequence (P08170 1-839): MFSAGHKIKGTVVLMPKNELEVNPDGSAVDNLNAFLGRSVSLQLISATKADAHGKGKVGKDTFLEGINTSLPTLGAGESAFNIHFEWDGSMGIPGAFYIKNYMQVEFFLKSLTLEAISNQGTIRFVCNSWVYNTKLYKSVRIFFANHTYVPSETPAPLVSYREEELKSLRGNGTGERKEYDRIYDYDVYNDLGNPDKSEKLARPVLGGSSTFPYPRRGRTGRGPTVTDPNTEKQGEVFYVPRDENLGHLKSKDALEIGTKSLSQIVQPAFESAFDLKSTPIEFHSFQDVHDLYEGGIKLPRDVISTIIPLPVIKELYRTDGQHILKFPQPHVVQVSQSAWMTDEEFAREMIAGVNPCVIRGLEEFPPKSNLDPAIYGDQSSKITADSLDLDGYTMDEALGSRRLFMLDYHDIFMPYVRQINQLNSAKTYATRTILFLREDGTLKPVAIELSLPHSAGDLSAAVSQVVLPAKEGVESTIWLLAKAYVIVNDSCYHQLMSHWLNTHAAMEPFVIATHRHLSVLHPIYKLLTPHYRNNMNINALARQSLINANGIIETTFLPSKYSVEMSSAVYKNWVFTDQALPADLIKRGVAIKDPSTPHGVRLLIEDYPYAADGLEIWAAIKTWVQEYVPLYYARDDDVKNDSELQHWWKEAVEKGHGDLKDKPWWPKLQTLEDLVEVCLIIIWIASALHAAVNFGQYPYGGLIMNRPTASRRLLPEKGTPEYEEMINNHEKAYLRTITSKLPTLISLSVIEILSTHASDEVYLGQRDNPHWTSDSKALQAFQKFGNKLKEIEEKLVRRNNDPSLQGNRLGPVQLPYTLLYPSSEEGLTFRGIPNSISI

[3] = system: LPS-induced ROS production in RAW 264.7 cells; conditions: read-out: ROS (IC50), LPS (1 μg/mL) 18 h, mean ± SEM
human recombinant COX-2 = target: T3, human recombinant COX-2 (Homo sapiens, UniProt P35354); assay: In vitro COX-2 inhibitory assay; assay type: biochemical; conditions: for Enhancement of anti-COX-2 activity by p-Cl on benzylidine: compared with unsubstituted compounds 4b, 4c, 4g, 4h respectively
T3 sequence (P35354 18-604): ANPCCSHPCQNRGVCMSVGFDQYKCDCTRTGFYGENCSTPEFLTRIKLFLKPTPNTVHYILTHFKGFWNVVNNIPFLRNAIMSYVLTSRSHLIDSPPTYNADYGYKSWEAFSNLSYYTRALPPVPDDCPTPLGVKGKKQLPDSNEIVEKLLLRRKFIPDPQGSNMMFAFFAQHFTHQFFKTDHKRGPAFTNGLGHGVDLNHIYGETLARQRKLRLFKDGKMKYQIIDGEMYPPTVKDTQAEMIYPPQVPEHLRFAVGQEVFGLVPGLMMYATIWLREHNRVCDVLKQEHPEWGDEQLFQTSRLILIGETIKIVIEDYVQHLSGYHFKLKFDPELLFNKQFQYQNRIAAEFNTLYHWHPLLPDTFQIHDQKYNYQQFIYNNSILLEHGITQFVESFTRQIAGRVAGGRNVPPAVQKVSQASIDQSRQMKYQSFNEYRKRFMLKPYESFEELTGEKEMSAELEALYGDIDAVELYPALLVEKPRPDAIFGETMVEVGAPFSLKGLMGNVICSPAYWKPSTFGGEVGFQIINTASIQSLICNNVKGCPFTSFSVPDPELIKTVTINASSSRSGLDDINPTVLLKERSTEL

[4] = system: LPS-induced ROS production in RAW 264.7 cells; assay: cells; conditions: Mus musculus, RAW264.7, 18 h, read-out: ROS (IC50)
Cell viability assay = assay type: cell-based, murine; conditions: mouse, RAW 264.7 macrophage cells
[5] = system: NF-κB activation in RAW 264.7 macrophages; assay: NF-κB activation in LPS-activated RAW 264.7 macrophages; assay type: cell-based, murine; conditions: 25 μM pretreatment, Western blot
[6] = read-out: COX1, IC50, ovine COX-1, mean ± SEM
[7] = read-out: 15-LOX IC50, soybean 15-LOX

Compound	IL-6 level [1]	TNF-α level ([2]; LPS-activated RAW 264.7)	IC50 (ovine COX-1; [6]) [µM]	IC50 (soybean 15-LOX; [7]) [µM]	IC50 [3] [µM]	SI (Selectivity index = COX-1 IC50/COX-2 IC50) (human recombinant COX-2)	IC50 (human recombinant COX-2; read-out: COX2, IC50) [nM]	Lowering of IL-6 level [1]	Lowering of TNF-α level ([2]; LPS-activated RAW 264.7)	IC50 (ovine COX-1) [µM]	IC50 (soybean 15-LOX) [µM]	IC50 [4] [µM]	viability at 50 µM (Cell viability assay) [%]	IC50 (human recombinant COX-2) [nM]	SI (Selectivity index = COX-1 IC50/COX-2 IC50) (human recombinant COX-2; COX-1 IC50/COX-2 IC50)	LPS-mediated increase in NF-κB activation (phospho/total NF-κB) [5]	TNF-α inhibition, fold more potent than celecoxib ([2]; vs celecoxib) [fold]	Enhancement of anti-COX-2 activity by p-Cl on benzylidine (human recombinant COX-2) [folds]
O=C(CSC1=N/C(=C\c2ccccc2)C(=O)N1c1ccccc1)Nc1ccc(Cl)cc1 [Compound 4c, (Z)-2-[(4-Benzylidene-5-oxo-1-phenyl-4,5-dihydro-1H-imidazol-2-yl)thio]-N-(4-chlorophenyl) acetamide]	49.08 ± 23.20 pg/mL	49.81 ± 23.20 pg/mL	9.12 ± 1.4	3.24 ± 1.46	61.6 ± 1.51	64.62	140 ± 62											
O=C(CSC1=N/C(=C\c2ccccc2)C(=O)N1c1ccccc1)Nc1ccc(Br)cc1 [Compound 4d, (Z)-2-[(4-Benzylidene-5-oxo-1-phenyl-4,5-dihydro-1H-imidazol-2-yl)thio]-N-(4-bromophenyl) acetamide]	26.35 pg/mL and 26.35 ± 4.22 pg/mL	27.08 pg/mL and 27.08 ± 4.22 pg/mL	8.14 ± 1.53	5.14 ± 2.48	62.1 ± 1.51	64.13	130 ± 71											
Cc1ccc(NC(=O)CSC2=N/C(=C\c3ccccc3)C(=O)N2c2ccccc2)cc1 [Compound 4e, (Z)-2-[(4-Benzylidene-5-oxo-1-phenyl-4,5-dihydro-1H-imidazol-2-yl)thio]-N-(4-tolyl) acetamide]	34.33 ± 1.82 pg/mL	58.19 ± 23.16 pg/mL	9.12 ± 1.4	5.14 ± 2.48	118 ± 2.36	90.85	100 ± 48											
COc1ccc(NC(=O)CSC2=N/C(=C\c3ccccc3)C(=O)N2c2ccccc2)cc1 [Compound 4f, (Z)-2-[(4-Benzylidene-5-oxo-1-phenyl-4,5-dihydro-1H-imidazol-2-yl)thio]-N-(4-methoxyphenyl)acetamide]	22.21 pg/mL and 22.21 ± 6.32 pg/mL	22.94 ± 6.32 pg/mL						~ 80%	~ 80%	11 ± 1.53	3.96 ± 1.49	22.8 ± 1.32	83 to 105	80 ± 40	131.59	attenuated		
COc1cc(NC(=O)CSC2=N/C(=C\c3ccccc3)C(=O)N2c2ccccc2)cc(OC)c1OC [Compound 4g, (Z)-2-[(4-Benzylidene-5-oxo-1-phenyl-4,5-dihydro-1H-imidazol-2-yl)thio]-N-(3,4,5-trimethoxyphenyl) acetamide]	11.51 ± 3.09 pg/mL	12.23 pg/mL and 12.23 ± 3.09 pg/mL	9.83 ± 1.65	2.82 ± 1.27	65.9 ± 1.55	68.07	140 ± 73										~2	
O=C(CSC1=N/C(=C\c2ccc(Cl)cc2)C(=O)N1c1ccccc1)Nc1ccc(F)cc1 [Compound 4k, (Z)-2-{[4-(4-Chlorobenzylidene)-5-oxo-1-phenyl-4,5-dihydro-1H-imidazol-2-yl]thio}-N-(4-fluorophenyl)acetamide]	27.57 ± 14.76 pg/mL	28.29 ± 14.76 pg/mL								13 ± 1.82	2.17 ± 1.04	71 ± 1.55	83 to 105	70 ± 34	186.28			1.85
O=C(CSC1=N/C(=C\c2ccc(Cl)cc2)C(=O)N1c1ccccc1)Nc1ccc(Cl)cc1 [Compound 4l, (Z)-2-{[4-(4-Chlorobenzylidene)-5-oxo-1-phenyl-4,5-dihydro-1H-imidazol-2-yl]thio}-N-(4-chlorophenyl)acetamide]	25.57 pg/mL and 25.75 ± 5.33 pg/mL	26.47 ± 5.33 pg/mL								12.3 ± 1.84	2.69 ± 1.29	52.7 ± 1.35	83 to 105	80 ± 35	154.73	attenuated		1.75
